Measured values published in patent US20060003907A1, “Detergent composition with benefit agents” (Unilever Home & Personal Care USA, Division of Conopco, Inc., priority 2003, published 2006).

What was measured:
[1] = pH and turbidity of 1% soap solution after adding ACH directly or through water-in-oil emulsion; format: physicochemical; settings: 60 mg ACH directly added to 1% soap solution (Control)
Description: A 1% soap solution was prepared by dissolving the soap in distilled water at 70° C., and then cooling the solution to ambient temperature. The formulation of the soap used is given below: […]
To ascertain the stability of the ACH incorporated in the dispersed phase such as the water-in-oil emulsion in accordance with the invention prepared under Example 2b, the soap solution obtained under Example 2a was used, and the effect of direct addition of ACH and the ACH in the water-in-oil emulsion (Example 2b) of the invention was studied.
For the purpose of the above study, two separate batches of the same soap solution of Example 2a was taken. In one batch 60 mg ACH was directly added, and in the other batch 100 mg ACH was added through the water-in-oil emulsion system as per Example 2b above. The pH levels and the turbidity of the respective solutions containing the active ACH directly introduced (Control) and the active ACH in the water-in-oil emulsion (Example 2b) were measured, and the results are reproduced hereunder in Table II.

[2] = Turbidity of 1% ACH solution at varying alkalinity (nephelometric turbidimeter); format: physicochemical; settings: 1% solution of ACH
Description: A 1% solution of ACH having initial pH of 4.6 was subjected to varying alkalinity by using sodium hydroxide solution, and the turbidity of the solution was measured at varying pH levels using a nephelometric turbidimeter.

- pH ([1]; soap solution alone 10.14): 9.89
- Turbidity ([1]; soap solution alone 205): 950
- Turbidity ([2]; pH 4.6 (initial pH)): 1.3 NTU
- Turbidity ([2]; pH 5.7 (sodium hydroxide)): 2.6 NTU
- Turbidity ([2]; pH 7.5 (sodium hydroxide)): 504 NTU
- Turbidity ([2]; pH 9.6 (sodium hydroxide)): 522 NTU
- Turbidity ([2]; pH 10.6 (sodium hydroxide)): 884 NTU
Substance: Aluminum Chlorohydrate [ACH]
